Measurements from ChEMBL document CHEMBL5442219.

How the values were obtained:
Conditions in all cases: Compound concentration 10 µM
[1] = molecular target: T1, Muscarinic acetylcholine receptor M5 (Homo sapiens) (UniProt P08912)
T1 sequence (whole entry): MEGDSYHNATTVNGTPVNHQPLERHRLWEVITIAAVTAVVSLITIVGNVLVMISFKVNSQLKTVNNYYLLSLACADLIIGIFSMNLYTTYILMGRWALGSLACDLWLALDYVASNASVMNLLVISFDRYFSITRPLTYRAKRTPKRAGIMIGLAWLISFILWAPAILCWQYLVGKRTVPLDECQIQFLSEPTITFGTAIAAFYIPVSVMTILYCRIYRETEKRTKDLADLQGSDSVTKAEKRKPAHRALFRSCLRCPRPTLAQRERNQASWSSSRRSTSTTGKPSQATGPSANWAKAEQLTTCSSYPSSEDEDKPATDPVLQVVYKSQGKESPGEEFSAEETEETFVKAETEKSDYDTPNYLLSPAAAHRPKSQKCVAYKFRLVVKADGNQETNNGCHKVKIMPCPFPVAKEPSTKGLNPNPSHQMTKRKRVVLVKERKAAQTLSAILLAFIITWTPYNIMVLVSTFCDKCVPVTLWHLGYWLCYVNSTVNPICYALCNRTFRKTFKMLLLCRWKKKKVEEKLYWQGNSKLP

[2] = molecular target: T2, Alpha-2A adrenergic receptor (Homo sapiens) (UniProt P08913)
T2 sequence (whole entry): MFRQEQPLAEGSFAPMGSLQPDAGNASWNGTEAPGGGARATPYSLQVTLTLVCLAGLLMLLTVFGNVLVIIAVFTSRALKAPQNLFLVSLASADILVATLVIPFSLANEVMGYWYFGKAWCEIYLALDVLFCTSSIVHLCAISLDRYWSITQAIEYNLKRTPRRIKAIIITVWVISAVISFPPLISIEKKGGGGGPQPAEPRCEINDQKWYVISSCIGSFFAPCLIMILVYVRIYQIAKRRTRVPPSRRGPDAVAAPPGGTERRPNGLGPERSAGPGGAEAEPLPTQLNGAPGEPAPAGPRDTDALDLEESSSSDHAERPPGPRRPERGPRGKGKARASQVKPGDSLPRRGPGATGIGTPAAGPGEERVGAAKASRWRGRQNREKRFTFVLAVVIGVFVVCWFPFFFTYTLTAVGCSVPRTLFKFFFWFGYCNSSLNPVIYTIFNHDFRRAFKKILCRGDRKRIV

[3] = molecular target: T3, 5-hydroxytryptamine receptor 1A (Homo sapiens) (UniProt P08908)
T3 sequence (whole entry): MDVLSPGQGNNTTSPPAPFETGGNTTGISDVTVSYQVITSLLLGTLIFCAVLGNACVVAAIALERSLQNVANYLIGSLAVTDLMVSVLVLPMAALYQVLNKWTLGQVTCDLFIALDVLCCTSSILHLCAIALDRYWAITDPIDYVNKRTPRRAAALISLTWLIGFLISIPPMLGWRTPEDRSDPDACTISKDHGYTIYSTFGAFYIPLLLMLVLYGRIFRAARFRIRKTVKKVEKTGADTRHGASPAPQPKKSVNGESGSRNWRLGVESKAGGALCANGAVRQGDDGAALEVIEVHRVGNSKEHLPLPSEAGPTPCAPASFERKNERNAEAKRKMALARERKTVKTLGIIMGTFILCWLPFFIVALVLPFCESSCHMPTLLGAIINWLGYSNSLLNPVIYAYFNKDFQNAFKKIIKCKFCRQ

[4] = molecular target: Translocator protein (Homo sapiens) (UniProt P30536)
[5] = molecular target: D(2) dopamine receptor (Homo sapiens) (UniProt P14416)
[6] = molecular target: Delta-type opioid receptor (Homo sapiens) (UniProt P41143)
[7] = molecular target: 5-hydroxytryptamine receptor 1D (Homo sapiens) (UniProt P28221)
[8] = molecular target: 5-hydroxytryptamine receptor 2A (Homo sapiens) (UniProt P28223)
[9] = molecular target: D(1B) dopamine receptor (Homo sapiens) (UniProt P21918)
[10] = molecular target: Beta-2 adrenergic receptor (Homo sapiens) (UniProt P07550)
[11] = molecular target: Histamine H4 receptor (Homo sapiens) (UniProt Q9H3N8)
[12] = molecular target: D(3) dopamine receptor (Homo sapiens) (UniProt P35462)
[13] = molecular target: Sigma intracellular receptor 2 (Homo sapiens) (UniProt Q5BJF2)
[14] = molecular target: 5-hydroxytryptamine receptor 1E (Homo sapiens) (UniProt P28566)
[15] = molecular target: 5-hydroxytryptamine receptor 6 (Homo sapiens) (UniProt P50406)
[16] = molecular target: 5-hydroxytryptamine receptor 7 (Homo sapiens) (UniProt P34969)
[17] = molecular target: T4, Alpha-2C adrenergic receptor (Homo sapiens) (UniProt P18825)
T4 sequence (whole entry): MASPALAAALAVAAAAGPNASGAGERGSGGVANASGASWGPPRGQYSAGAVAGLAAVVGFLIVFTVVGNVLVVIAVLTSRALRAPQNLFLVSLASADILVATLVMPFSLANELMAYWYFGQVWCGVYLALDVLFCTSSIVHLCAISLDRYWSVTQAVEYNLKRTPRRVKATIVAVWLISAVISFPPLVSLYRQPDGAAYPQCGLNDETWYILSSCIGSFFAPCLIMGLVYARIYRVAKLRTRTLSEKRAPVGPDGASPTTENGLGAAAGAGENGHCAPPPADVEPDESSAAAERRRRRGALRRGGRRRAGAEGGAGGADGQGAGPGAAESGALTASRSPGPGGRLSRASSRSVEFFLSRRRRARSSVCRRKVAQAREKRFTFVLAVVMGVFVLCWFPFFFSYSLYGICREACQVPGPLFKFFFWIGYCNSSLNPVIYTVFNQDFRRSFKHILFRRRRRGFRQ

[18] = molecular target: Sodium-dependent noradrenaline transporter (Homo sapiens) (UniProt P23975)
[19] = molecular target: Sodium-dependent serotonin transporter (Homo sapiens) (UniProt P31645)
[20] = molecular target: 5-hydroxytryptamine receptor 1B (Homo sapiens) (UniProt P28222)
[21] = molecular target: D(1A) dopamine receptor (Homo sapiens) (UniProt P21728)

Chain of Sodium-dependent serotonin transporter (Homo sapiens) (P31645 whole entry, looked up): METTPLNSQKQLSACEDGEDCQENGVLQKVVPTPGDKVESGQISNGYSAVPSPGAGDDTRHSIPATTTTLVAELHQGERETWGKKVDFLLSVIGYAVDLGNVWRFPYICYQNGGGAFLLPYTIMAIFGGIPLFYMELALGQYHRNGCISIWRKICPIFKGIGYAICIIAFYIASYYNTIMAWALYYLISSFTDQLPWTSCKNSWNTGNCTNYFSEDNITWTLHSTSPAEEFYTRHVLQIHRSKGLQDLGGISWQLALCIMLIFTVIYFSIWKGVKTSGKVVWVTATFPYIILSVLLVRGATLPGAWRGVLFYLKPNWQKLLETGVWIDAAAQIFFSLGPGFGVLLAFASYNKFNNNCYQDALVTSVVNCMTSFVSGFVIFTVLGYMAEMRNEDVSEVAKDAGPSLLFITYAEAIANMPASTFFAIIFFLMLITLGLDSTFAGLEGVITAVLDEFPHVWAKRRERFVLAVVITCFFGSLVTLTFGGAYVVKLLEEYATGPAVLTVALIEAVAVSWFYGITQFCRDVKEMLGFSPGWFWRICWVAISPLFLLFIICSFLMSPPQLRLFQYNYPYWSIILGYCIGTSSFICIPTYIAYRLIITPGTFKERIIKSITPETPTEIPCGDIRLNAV
Chain of 5-hydroxytryptamine receptor 7 (Homo sapiens) (P34969 whole entry): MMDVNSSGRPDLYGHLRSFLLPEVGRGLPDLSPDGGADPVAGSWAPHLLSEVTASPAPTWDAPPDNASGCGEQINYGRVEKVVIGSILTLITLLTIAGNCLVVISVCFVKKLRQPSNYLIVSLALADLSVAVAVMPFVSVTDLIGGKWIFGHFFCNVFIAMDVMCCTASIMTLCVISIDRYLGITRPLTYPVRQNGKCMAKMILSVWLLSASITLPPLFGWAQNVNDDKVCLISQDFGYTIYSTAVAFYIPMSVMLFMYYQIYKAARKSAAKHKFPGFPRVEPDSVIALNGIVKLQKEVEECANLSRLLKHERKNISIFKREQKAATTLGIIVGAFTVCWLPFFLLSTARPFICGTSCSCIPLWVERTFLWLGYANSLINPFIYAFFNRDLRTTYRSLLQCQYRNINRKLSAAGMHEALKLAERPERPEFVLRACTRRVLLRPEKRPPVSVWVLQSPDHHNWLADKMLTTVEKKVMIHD
Chain of Sigma intracellular receptor 2 (Homo sapiens) (Q5BJF2 whole entry): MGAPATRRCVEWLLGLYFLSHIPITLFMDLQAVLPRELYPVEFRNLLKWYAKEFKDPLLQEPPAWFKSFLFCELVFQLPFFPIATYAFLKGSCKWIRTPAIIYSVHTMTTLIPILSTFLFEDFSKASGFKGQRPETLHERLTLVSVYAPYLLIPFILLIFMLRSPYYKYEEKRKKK
Chain of 5-hydroxytryptamine receptor 1B (Homo sapiens) (P28222 whole entry): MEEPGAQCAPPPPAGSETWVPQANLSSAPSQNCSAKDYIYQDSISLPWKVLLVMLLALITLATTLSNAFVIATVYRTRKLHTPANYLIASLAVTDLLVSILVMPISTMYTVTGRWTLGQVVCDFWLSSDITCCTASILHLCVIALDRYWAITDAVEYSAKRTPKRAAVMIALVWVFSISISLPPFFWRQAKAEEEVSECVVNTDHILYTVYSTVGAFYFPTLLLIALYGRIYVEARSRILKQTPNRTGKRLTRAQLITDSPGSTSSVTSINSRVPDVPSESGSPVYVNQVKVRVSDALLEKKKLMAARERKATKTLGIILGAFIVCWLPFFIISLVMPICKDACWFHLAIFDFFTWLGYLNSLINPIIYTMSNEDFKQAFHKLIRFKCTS
Chain of D(1B) dopamine receptor (Homo sapiens) (P21918 whole entry): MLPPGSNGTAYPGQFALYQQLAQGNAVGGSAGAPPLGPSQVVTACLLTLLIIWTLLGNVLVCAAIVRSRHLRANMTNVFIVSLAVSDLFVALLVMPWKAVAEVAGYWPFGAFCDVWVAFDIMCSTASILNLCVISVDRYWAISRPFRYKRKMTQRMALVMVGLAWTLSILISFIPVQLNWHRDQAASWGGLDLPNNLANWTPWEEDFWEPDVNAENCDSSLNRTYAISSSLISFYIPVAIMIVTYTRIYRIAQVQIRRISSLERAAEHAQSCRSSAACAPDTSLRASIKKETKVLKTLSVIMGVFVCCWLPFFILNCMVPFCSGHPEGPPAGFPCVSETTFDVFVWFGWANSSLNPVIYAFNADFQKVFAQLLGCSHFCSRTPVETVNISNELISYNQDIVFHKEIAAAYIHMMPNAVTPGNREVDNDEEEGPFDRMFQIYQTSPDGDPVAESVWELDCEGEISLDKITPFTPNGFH
Chain of D(3) dopamine receptor (Homo sapiens) (P35462 whole entry): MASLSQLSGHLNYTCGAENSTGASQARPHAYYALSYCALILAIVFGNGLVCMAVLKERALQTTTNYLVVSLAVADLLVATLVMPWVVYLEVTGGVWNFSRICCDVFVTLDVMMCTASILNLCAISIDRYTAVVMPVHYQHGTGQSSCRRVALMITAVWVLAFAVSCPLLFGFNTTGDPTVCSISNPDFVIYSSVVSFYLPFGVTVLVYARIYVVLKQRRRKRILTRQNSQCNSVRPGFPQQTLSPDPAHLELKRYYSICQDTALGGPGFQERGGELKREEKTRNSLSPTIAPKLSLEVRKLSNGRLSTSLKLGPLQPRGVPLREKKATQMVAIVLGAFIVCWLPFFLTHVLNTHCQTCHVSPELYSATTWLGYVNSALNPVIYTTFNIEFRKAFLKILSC
Chain of Sodium-dependent noradrenaline transporter (Homo sapiens) (P23975 whole entry): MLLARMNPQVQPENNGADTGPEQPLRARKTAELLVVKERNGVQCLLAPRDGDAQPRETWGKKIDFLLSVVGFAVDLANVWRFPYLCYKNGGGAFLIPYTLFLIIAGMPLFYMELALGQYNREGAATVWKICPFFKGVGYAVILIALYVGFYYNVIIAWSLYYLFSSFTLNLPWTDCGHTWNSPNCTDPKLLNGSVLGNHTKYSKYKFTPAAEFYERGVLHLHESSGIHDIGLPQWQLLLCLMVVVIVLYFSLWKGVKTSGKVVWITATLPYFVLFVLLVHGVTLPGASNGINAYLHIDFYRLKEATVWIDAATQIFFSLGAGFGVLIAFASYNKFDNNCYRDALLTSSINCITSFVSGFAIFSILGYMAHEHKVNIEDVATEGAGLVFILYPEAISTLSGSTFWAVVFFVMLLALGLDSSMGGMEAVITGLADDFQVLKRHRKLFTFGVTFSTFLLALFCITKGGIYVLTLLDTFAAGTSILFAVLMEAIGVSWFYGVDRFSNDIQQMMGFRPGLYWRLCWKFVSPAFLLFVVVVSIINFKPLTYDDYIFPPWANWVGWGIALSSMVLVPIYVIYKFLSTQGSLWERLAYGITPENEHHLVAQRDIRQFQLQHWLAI
Chain of 5-hydroxytryptamine receptor 1D (Homo sapiens) (P28221 whole entry): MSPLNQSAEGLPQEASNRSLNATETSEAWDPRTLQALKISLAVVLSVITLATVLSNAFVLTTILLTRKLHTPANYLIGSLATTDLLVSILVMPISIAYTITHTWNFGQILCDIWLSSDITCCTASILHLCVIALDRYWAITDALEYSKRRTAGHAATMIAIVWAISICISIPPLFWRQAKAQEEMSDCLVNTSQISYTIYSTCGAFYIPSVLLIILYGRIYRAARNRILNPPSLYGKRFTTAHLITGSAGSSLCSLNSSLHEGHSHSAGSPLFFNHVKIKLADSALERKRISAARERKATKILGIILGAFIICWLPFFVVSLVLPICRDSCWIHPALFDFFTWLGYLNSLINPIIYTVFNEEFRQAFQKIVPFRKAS
Chain of 5-hydroxytryptamine receptor 6 (Homo sapiens) (P50406 whole entry): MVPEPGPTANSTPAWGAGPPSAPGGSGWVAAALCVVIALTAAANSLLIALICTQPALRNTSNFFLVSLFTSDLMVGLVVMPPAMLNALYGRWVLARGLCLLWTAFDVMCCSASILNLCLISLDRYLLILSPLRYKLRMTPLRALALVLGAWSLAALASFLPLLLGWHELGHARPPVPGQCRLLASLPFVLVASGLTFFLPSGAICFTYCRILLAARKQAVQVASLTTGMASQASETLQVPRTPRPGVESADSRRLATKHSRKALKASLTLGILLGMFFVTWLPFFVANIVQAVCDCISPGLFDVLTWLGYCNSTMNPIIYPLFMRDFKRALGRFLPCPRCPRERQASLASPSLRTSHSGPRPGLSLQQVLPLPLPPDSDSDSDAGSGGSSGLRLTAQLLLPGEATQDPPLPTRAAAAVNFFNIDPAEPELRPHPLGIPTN
Chain of Delta-type opioid receptor (Homo sapiens) (P41143 whole entry): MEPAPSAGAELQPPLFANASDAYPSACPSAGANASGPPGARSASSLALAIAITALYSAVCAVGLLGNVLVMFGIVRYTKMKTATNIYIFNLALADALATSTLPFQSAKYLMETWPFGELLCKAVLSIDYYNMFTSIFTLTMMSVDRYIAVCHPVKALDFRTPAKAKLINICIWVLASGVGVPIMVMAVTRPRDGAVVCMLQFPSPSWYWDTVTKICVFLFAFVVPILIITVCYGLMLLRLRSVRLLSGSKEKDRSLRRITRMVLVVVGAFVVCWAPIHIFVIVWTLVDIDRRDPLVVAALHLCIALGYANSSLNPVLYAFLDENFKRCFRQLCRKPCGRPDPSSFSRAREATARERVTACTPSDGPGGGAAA
Chain of D(2) dopamine receptor (Homo sapiens) (P14416 whole entry): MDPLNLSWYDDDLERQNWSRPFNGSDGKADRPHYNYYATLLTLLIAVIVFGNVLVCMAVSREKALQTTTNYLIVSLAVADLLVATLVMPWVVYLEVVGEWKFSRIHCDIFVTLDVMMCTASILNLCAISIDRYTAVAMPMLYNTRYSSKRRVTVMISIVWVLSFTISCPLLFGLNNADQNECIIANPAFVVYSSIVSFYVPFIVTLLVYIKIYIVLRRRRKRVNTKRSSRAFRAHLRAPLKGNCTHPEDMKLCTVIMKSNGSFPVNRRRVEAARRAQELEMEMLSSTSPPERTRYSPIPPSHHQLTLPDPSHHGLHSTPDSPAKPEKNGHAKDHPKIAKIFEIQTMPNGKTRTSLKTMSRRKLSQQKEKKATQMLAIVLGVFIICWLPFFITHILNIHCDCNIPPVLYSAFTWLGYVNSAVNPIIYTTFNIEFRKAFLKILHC

Compound | inhibition [1] | inhibition [2] | inhibition [3] | inhibition [4] | inhibition [5] | inhibition [6] | inhibition [7] | inhibition [8] | inhibition [9] | inhibition [10] | inhibition [11] | inhibition [12] | inhibition [13] | inhibition [14] | inhibition [15] | inhibition [16] | inhibition [17] | inhibition [18] | inhibition [19] | inhibition [20] | other results
Cc1cc(C)cc(-c2cnc3cc(Cl)c(-c4cccc(O)c4)cc3c2OCCCN)c1 | 3.7% | 64.9% | 64.1% | 79.5% | 37.3% | 50.2% | 91.8% | 63.2% | 72.9% | 92.8% | 68.2% | 95.9% | 94.9% | 54.4% | 59% | 54.9% | 68% | 59.5% | 48.9% | 88.2% | 
CN1CCN(c2ccc(Nc3c4ccccc4nc4ccccc34)cc2)CC1 | 42.3% | 70.5% | 8.52% | 6% | -0.18% | 5.07% | 54.3% | 5.02% | 14.1% | 81.7% | 15.5% | -2.42% | 70.8% | 46.2% | 13.8% | 84.4% | 105% | 84.7% | 87.7% | 30.3% | 
O=c1ccn([C@@H]2O[C@H](COP(=O)(O)OP(=O)(O)OP(=O)(O)O)[C@@H](O)[C@H]2O)c(=O)[nH]1 | 7.7% | 11.6% | 26.3% | 56.6% | 90.1% | -0.41% |  | 46.4% | 20.2% |  | 4.53% | 22.3% | 34% | -2.1% | 11.9% | 3.3% | 6.85% | 11% | 13.8% | 7.75% | inhibition [21]: 45.1%
CNc1nc(NCc2ccc(NS(C)(=O)=O)cc2Cl)cc(-c2ccccn2)n1 | 6.84% | 43.2% | 0.99% | 54.8% | -4.41% | -8.14% | 0.67% | 60.3% |  |  | 0.58% | 56.5% | 39.1% | -3.24% | 47% | 77.9% | 50.4% | 24% | 42.1% | 3.99% | inhibition [21]: 7.8%
NCCc1c[nH]c2ccc(C(N)=O)cc12 | 8.53% | 69.8% | 91.4% |  | 55.9% | -3.42% | 98.3% | -8.47% |  | 4.33% | -3.92% | 7.17% | 63.4% | 65.6% | 88.4% | 100% | 15.4% | 63.2% | 49.3% | 101% | 
Cc1c(F)cccc1NC(=O)Nc1ccc(Cl)c(S(=O)(=O)[C@H]2CCCNC2)c1O |  |  |  | 8.9% | 11.7% | -5.71% | -2.39% | -0.14% | 3.67% | 5.61% |  | 25.8% |  | -6.67% | -2.87% | -3.91% | -6.11% |  | -2.95% | 8.6% | 
Cc1ccccc1N1CCN(S(=O)(=O)C[C@]23CC[C@H](C[C@@H]2NC(=O)[C@@H](N)CCS(C)(=O)=O)C3(C)C)CC1 |  | 27.8% |  | -1.05% |  | 7.82% | -2.54% | 1.52% | -6.4% | 13.7% | -3.44% |  | 85% | 19.7% | 0.91% | 25.6% | 14.7% |  | -9.42% | 18.8% | inhibition [21]: 7.11%
Cc1nc(-c2ccc(C(F)(F)F)cc2)sc1COc1ccc([C@H](CC(=O)O)c2ccon2)cc1 |  |  |  | 11.6% | 16.7% | 23% | 8.11% | 48.3% | -0.99% | 7.87% | -1.65% | 42.1% | 26.5% | 39.7% | 20.3% | 4.07% | 2.28% | 14.3% | 21.4% |  | 
CN[C@@H]1CCc2[nH]c3ccc(C(N)=O)cc3c2C1 | -1.58% | 31% | 56.4% | -4.51% | 67.2% | 2.74% | 72.3% | 16.6% | 20.9% | 22.7% | 2.79% | 47.6% | 54.9% | 79.1% | 24.2% | 92% |  | -1.01% | 7.67% | 88.2% | 
C[N+]1(C)[C@@H]2C[C@@H](OC(=O)C(O)(c3cccs3)c3cccs3)C[C@H]1[C@@H]1O[C@@H]12 | 97.4% | 6.5% |  | 66.3% | 15.2% | -1.59% | 32.9% | -4.76% |  | 16.1% | -8.1% | 24% | 66.5% | 11.2% | -5.82% | -5.44% | -0.27% | -2.62% | 30% | 14.9% | 
